# Data reported in US7597692B2, “Microscission processes and procedures” (Massachusetts Institute of Technology, priority 2000, dated 2009).
# Tested on: Subject B site (forearm microconduit)
# Test: Lidocaine applied on forearm microconduit site, anesthetic effect (Example 3)
# Format: in vivo, human
# Conditions: 3% lidocaine applied on Subject B microconduit site
structure (smiles),measurement,value
CCN(CC)CC(=O)Nc1c(C)cccc1C [lidocaine],anesthetic effects,No discernible anesthetic effects were observed
